{"source": "patent US4153686A", "about": "“Process for the preparation of glucoproteins as well as the use thereof” (priority 1976, dated 1979)", "key": {"[1]": {"tested_on": "proteus mirabilis b, Penicillinase-forming substance", "assay": "Bactericidal MIC-values, 50 strains (Table 2)", "type": "cell-based", "settings": "of 50 strains; MIC steps 2000 to 0.0002 γ/ml, counts in descending MIC order"}, "[2]": {"tested_on": "strains which form Penicillinase", "assay": "Bactericidal activity against penicillinase-forming strains (statement)", "type": "cell-based", "settings": "ampicillin alone"}, "[3]": {"tested_on": "aerobacter aeroges", "assay": "Bactericidal MIC-values, 50 strains (Table 2)", "type": "cell-based", "settings": "of 50 strains; MIC steps 2000 to 0.0002 γ/ml, counts in descending MIC order"}, "[4]": {"tested_on": "staphyloc. aur. NCTC 6571", "assay": "Bactericidal activity in vitro, cylinder test (Table 1)", "type": "cell-based", "settings": "18 h at 37° C., average of three individual measurements; read-out: Bactericidal action (MIC)"}, "[5]": {"tested_on": "h. influencae ATCC 19418", "assay": "Bactericidal activity in vitro, cylinder test (Table 1)", "type": "cell-based", "settings": "18 h at 37° C., average of three individual measurements; read-out: Bactericidal action (MIC)"}, "[6]": {"tested_on": "strept. pyogenes ATCC 8668", "assay": "Bactericidal activity in vitro, cylinder test (Table 1)", "type": "cell-based", "settings": "Streptococcus pyogenes, ATCC8668; 18 h at 37° C., average of three individual measurements; read-out: Bactericidal action (MIC)"}, "[7]": {"tested_on": "strept. faecalis ATCC 19433", "assay": "Bactericidal activity in vitro, cylinder test (Table 1)", "type": "cell-based", "settings": "Enterococcus faecalis, ATCC19433; 18 h at 37° C., average of three individual measurements; read-out: Bactericidal action (MIC)"}, "[8]": {"tested_on": "stapyloc. aur. ATCC 6538 P (Penicillinase forming substance)", "assay": "Bactericidal activity in vitro, cylinder test (Table 1)", "type": "cell-based", "settings": "18 h at 37° C., average of three individual measurements"}, "[9]": {"tested_on": "strept. faecalis ATCC 8043", "assay": "Bactericidal activity in vitro, cylinder test (Table 1)", "type": "cell-based", "settings": "Enterococcus faecalis, ATCC8043; 18 h at 37° C., average of three individual measurements; read-out: Bactericidal action (MIC)"}, "[10]": {"tested_on": "strept. pneumon. ATCC 6301", "assay": "Bactericidal activity in vitro, cylinder test (Table 1)", "type": "cell-based", "settings": "18 h at 37° C., average of three individual measurements; read-out: Bactericidal action (MIC)"}, "[11]": {"tested_on": "strept. faecalis ATCC 10541", "assay": "Bactericidal activity in vitro, cylinder test (Table 1)", "type": "cell-based", "settings": "Enterococcus faecalis, ATCC10541; 18 h at 37° C., average of three individual measurements; read-out: Bactericidal action (MIC)"}, "[12]": {"tested_on": "strept. pneumon. ATCC 6302", "assay": "Bactericidal activity in vitro, cylinder test (Table 1)", "type": "cell-based", "settings": "18 h at 37° C., average of three individual measurements; read-out: Bactericidal action (MIC)"}, "[13]": {"tested_on": "ps. aeruginosa NCTC 10662", "assay": "Bactericidal activity in vitro, cylinder test (Table 1)", "type": "cell-based", "settings": "Pseudomonas aeruginosa, NCTC10662; 18 h at 37° C., average of three individual measurements; read-out: Bactericidal action (MIC)"}, "[14]": {"tested_on": "fungi", "assay": "Fungicidal activity (statement)", "type": "cell-based", "settings": "ampicillin alone", "experimental": "The MIC-values for the fungicidal activity of the combination product were determined according to the provisions of the American Soc. of Clinical Microbiology, Manual of Clinical Microbiology, 2nd Edition (Washington, D.C.)."}, "[15]": {"tested_on": "psuedomonas aeruginosa", "assay": "Bactericidal MIC-values, 50 strains (Table 2)", "type": "cell-based", "settings": "of 50 strains; MIC steps 2000 to 0.0002 γ/ml, counts in descending MIC order"}, "[16]": {"tested_on": "escherichia coli NCTC 10418", "assay": "Bactericidal activity in vitro, cylinder test (Table 1)", "type": "cell-based", "settings": "NCTC10418, 18 h at 37° C., average of three individual measurements, read-out: Bactericidal action (MIC)"}, "[17]": {"tested_on": "stapyloc. aur. ATCC 11522", "assay": "Bactericidal activity in vitro, cylinder test (Table 1)", "type": "cell-based", "settings": "18 h at 37° C., average of three individual measurements; read-out: Bactericidal action (MIC)"}, "[18]": {"tested_on": "staphyl. aur. b, Penicillinase-forming substance", "assay": "Bactericidal MIC-values, 50 strains (Table 2)", "type": "cell-based", "settings": "of 50 strains; MIC steps 2000 to 0.0002 γ/ml, counts in descending MIC order"}, "[19]": {"settings": "0.5 mg Dexam 3 × daily perorally, after 5 days"}, "[20]": {"assay": "Clinical test of Norfenefrin and Norfenefrin + glucoprotein, blood pressure (Table 6)", "type": "in vivo, patients", "settings": "14th day, 3.0 mg Norfenefrin once daily"}, "[21]": {"assay": "Clinical test of phenylbutazone and phenylbutazone + glucoprotein, BSG (Table 5)", "type": "in vivo, patients", "settings": "1.0 g phenylbutazone 3 × daily orally, after 8 days"}, "[22]": {"settings": "three hours after medication, individual patient"}}, "note": "“And” between values parts separate entries of the source, which are not always exact repeats. Identical values can stand only once. Like-named read-outs stand apart in the source and are kept apart here."}
{"smiles": "CC1(C)S[C@@H]2[C@H](NC(=O)[C@H](N)c3ccccc3)C(=O)N2[C@H]1C(=O)O", "note": "[Ampicillin, D-(2-amino-2-phenylacetamido)-3,3-dimethyl-7-oxo-4-thia-1-azabicyclo-[3,2,0]-heptane-2-carboxylic acid]", "values": [{"measurement": "Bactericidal MIC-values: number of strains at each MIC step", "setting": "[1]", "value": 50}, {"measurement": "action against Penicillinase-forming strains", "setting": "[2]", "value": "completely ineffective"}, {"measurement": "Bactericidal MIC-values: number of strains at each MIC step", "setting": "[3]", "value": 50}, {"measurement": "MIC", "setting": "[4]", "value": 0.06, "unit": "µg/mL"}, {"measurement": "MIC", "setting": "[5]", "value": 0.25, "unit": "µg/mL"}, {"measurement": "MIC", "setting": "[6]", "value": 0.03, "unit": "µg/mL"}, {"measurement": "MIC", "setting": "[7]", "value": 2, "unit": "µg/mL"}, {"measurement": "Bactericidal action (MIC)", "setting": "[8]", "value": "resistant"}, {"measurement": "MIC", "setting": "[9]", "value": 2, "unit": "µg/mL"}, {"measurement": "MIC", "setting": "[10]", "value": 0.06, "unit": "µg/mL"}, {"measurement": "MIC", "setting": "[11]", "value": 1, "unit": "µg/mL"}, {"measurement": "MIC", "setting": "[12]", "value": 0.06, "unit": "µg/mL"}, {"measurement": "MIC", "setting": "[13]", "value": 240, "unit": "µg/mL"}, {"measurement": "fungicidal activity", "setting": "[14]", "value": "no fungicidal activity which can be evaluated in practice"}, {"measurement": "Bactericidal MIC-values: number of strains at each MIC step", "setting": "[15]", "value": 50}, {"measurement": "MIC", "setting": "[16]", "value": 8, "unit": "µg/mL"}, {"measurement": "MIC", "setting": "[17]", "value": 0.06, "unit": "µg/mL"}, {"measurement": "Bactericidal MIC-values: number of strains at each MIC step", "setting": "[18]", "value": 50}]}
{"smiles": "C[C@@H]1C[C@H]2[C@@H]3CCC4=CC(=O)C=C[C@]4(C)[C@@]3(F)[C@@H](O)C[C@]2(C)[C@@]1(O)C(=O)CO", "note": "[Dexam, dexamethasone]", "values": [{"measurement": "ASLO, average", "setting": "[19]; average of 10 patients", "value": 220, "unit": "i.E."}, {"measurement": "BSG after 1 h., average", "setting": "[19]; average of 10 patients", "value": 23.5}, {"measurement": "BSG after 2 h., average", "setting": "[19]; average of 10 patients", "value": 38.8}, {"measurement": "ASLO", "setting": "[19]; individual patient", "value": "200 i.E. and 100 i.E. and 300 i.E."}, {"measurement": "BSG after 1 h.", "setting": "[19]; individual patient", "value": "25 and 20 and 30 and 24 and 22"}, {"measurement": "BSG after 2 h.", "setting": "[19]; individual patient", "value": "30 and 35 and 40 and 45 and 50 and 42 and 38 and 36 and 34"}]}
{"smiles": "NCC(O)c1cccc(O)c1", "note": "(centres unmarked) [Norfenefrin]", "values": [{"measurement": "diastolic blood pressure", "setting": "[20]; [22]", "value": "70 and 75 and 80"}, {"measurement": "systolic blood pressure", "setting": "[20]; [22]", "value": "120 and 125 and 130"}, {"measurement": "diastolic blood pressure, average", "setting": "[20]; average of 10 patients", "value": 76.5}, {"measurement": "systolic blood pressure, average", "setting": "[20]; average of 10 patients", "value": 126.0}]}
{"smiles": "CCCCC1C(=O)N(c2ccccc2)N(c2ccccc2)C1=O", "note": "[phenylbutazone]", "values": [{"measurement": "BSG after 1 h., average", "setting": "[21]; average of 10 patients", "value": 33.2}, {"measurement": "BSG after 2 h., average", "setting": "[21]; average of 10 patients", "value": 57.9}, {"measurement": "BSG after 1 h.", "setting": "[21]; individual patient", "value": "38 and 40 and 35 and 30 and 28 and 32 and 25"}, {"measurement": "BSG after 2 h.", "setting": "[21]; individual patient", "value": "62 and 60 and 50 and 45 and 58"}]}
